# Laboratory results taken from patent US9006221B2, “Method of modulating ship activity” (H. Lee Moffitt Cancer Center and Reserach Institute, Inc., priority 2008, dated 2015).
# Tests used:
# [1] = test system: human multiple myeloma cell lines OPM and RPMI; experiment: Apoptosis (annexin positive cells) in multiple myeloma cell lines; assay type: cell-based; conditions: increasing concentrations
# From the text: (A) SHIP1 expression in human multiple myeloma (MM) cell lines as presented in the western blot analysis. SHIP is expressed in the human multiple myeloma cell lines U266, RPMI8226 and OPM2. The expression in the MM cell lines is shown relative to that observed in MG63 and HS-5 cell lines. MG63 is an osteosarcoma cell line, and HS-5 is a human bone marrow stroma cell line. […] Actin is provided as a control. (B) Results of MTT dye assays of MM cell lines. […] RUO is “relative units optical”. (C) Apoptosis in OPM and RPMI cell lines at increasing concentrations of 3α-aminocholestane.
# SHIP1 = molecular target: T1, SHIP1 (Mus musculus, UniProt Q9ES52); experiment: Malachite Green phosphate release assay, SHIP1; assay type: biochemical; conditions: at 1 mM
# T1 construct: The asterisk in lanes 1 and 3 indicates the ˜145 kD full-length SHIP protein; His tag (C); made in house; host or cells: E. coli Rosetta-Gami 2 (DE3) pLys
# T1 sequence (Q9ES52 1-1191): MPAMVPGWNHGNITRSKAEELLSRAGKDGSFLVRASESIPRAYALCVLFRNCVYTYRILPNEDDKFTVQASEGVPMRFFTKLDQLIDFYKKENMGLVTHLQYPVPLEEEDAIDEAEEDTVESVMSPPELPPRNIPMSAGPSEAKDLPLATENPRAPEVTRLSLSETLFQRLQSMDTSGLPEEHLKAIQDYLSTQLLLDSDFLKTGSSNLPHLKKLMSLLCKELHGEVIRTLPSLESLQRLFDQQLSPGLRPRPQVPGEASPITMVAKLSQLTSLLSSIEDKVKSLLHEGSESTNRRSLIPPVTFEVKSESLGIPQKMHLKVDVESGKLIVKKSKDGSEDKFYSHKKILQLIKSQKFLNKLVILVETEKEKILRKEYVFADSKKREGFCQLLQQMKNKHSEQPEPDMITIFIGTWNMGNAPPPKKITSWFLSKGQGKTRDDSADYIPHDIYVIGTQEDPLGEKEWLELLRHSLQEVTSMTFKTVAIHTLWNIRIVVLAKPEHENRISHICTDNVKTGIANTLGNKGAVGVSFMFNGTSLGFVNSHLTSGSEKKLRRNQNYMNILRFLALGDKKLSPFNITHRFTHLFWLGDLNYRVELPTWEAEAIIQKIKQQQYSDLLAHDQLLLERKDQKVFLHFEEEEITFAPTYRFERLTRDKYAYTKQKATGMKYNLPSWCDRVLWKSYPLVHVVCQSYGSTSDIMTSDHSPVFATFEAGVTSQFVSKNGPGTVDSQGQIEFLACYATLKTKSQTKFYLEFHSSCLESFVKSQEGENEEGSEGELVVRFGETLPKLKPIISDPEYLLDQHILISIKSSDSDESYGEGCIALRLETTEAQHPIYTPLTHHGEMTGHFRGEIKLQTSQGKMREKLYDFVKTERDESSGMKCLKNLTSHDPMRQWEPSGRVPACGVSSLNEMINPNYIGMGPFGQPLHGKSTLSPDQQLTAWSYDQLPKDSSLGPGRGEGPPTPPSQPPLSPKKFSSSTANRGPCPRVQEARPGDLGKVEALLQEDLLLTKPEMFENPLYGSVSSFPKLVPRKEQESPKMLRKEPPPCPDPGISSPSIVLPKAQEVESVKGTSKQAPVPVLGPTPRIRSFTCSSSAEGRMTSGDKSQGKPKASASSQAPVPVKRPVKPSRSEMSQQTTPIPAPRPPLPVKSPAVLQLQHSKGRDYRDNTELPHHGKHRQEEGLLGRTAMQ
smiles,measurement,setting,value
"CC(C)CCC[C@@H](C)[C@H]1CC[C@H]2[C@@H]3CC[C@H]4C[C@H](N)CC[C@]4(C)[C@H]3CC[C@]12C [NSC23922, (3R,5S,8R,9S,10S,13R,14S,17R)-10,13-dimethyl-17-[(2R)-6-methylheptan-2-yl]-2,3,4,5,6,7,8,9,11,12,14,15,16,17-tetradecahydro-1H-cyclopenta[a]phenanthren-3-amine]",apoptosis (percent annexin positive cells),[1],apoptosis occurs
same,inhibition of SHIP1,SHIP1,full inhibition
